{"source": "patent US20260240846A1", "about": "“ZAK ALPHA KINASE (MAP3K20) INHIBITORS FOR USE IN THE TREATMENT OF ANEMIA” (UNIVERSIDAD DE MURCIA, priority 2023, published 2026)", "key": {"[1]": {"tested_on": "primary CD34+/CD133+ HSPCs from healthy donors", "experiment": "Erythroid differentiation of primary CD34+/CD133+ HSPCs with EPO (flow cytometry CD235a/CD71)", "assay_type": "cell-based, human", "conditions": "0.1 μM nilotinib from 3 to 7 d or 7 to 10 d of culture", "experimental": "(§1) FIG. 8. Nilotinib promotes erythropoiesis of primary CD34^+/CD133^+ HSPCs from healthy donors. (A) Primary human CD34^+/CD133^+ cells were differentiated with erythropoietin (EPO) and 0.1 μM nilotinib was added from 3 to 7 d of culture and the number of life cells calculated by the trypan blue exclusion assay. (B, C) Cells were stained with anti-CD235a-APC and anti-CD71-FITC, and erythroid differentiation was then analyzed by flow cytometry. Representative dot plots at different differentiation times (B) and overlapped histogram of CD235a at 7 d and the mean fluorescence intensity (MFI) at different differentiation times (C) are shown.\nas §1, with “FIG. 9.” for “FIG. 8.”, “with EPO” for “with erythropoietin (EPO)”, “from 7” for “from 3”, “to 10” for “to 7”, “at 10” for “at 7”, “shown. […]” for “shown.”"}, "[2]": {"tested_on": "bone marrow mononuclear cells of a DBA patient with a RPS19 mutation", "experiment": "Colony assay of BMMCs from a DBA patient in methylcellulose medium", "assay_type": "cell-based, human", "conditions": "2 weeks", "experimental": "FIG. 6. NLRP1 is activated by phosphorylation of the linker domain after activation of ZAKα and pharmacological inhibition of this signaling pathway promotes erythropoiesis in DBA. (A-D) Number of neutrophils (A-C), and caspase-1 activity (D) in 2 dpf larvae obtained by injection of one-cell stage embryos with human NLRP1 (wild type-WT, S107A and S107D) and treated from 1 to 2 dpf by bath immersion with 1 μM nilotinib (B-D). Representative images of neutrophils (arrows) are also shown in C. (E, F) BMMCs from a DBA patient were incubated for 2 weeks in human methylcellulose complete medium at 37° C. in the presence or absence of the indicated concentrations of nilotinib, and colonies were counted using standard morphological criteria. Each dot represents one individual and the mean±SEM for each group is also shown. P values were calculated by one-way ANOVA and Tukey's multiple range test. n.s., non-significant; *P<0.05; **P<0.01; ***P<0.001; ****P<0.0001.\nBone marrow aspirates were collected at the Hospital General Universitario José Maria Morales Meseguer under CEIC approval number EST: 12/16. […] BMMCs were incubated in methylcellulose medium at 37° C. in a 5% CO2-humidified atmosphere in the presence of DMSO or nilotinib (0.01 and 0.1 μM), and colonies were counted at day 9 and 14 using standard morphological criteria."}, "K562 cells": {"tested_on": "K562 cells", "experiment": "Transcriptomic analysis (RNA seq) and RT-qPCR of erythroid genes in K562 cells", "assay_type": "cell-based, human", "experimental": "FIG. 12. Nilotinib promotes an erythroid gene expression profile in human K562 cells. K562 cells were pretreated with the indicated concentrations of 0.1 μM nilotinib, for 24 h and then differentiated with 50 μM hemin for additional 24 h. RNA was extracted and transcriptomic analysis performed by RNA seq. (A) Heatmap of selected erythroid genes. (B) Validation of nilotinib-induced erythroid genes by RT-qPCR. Each dot represents a biological replicate and the mean±SEM for each group is also shown."}, "caspase-1": {"tested_on": "caspase-1", "experiment": "CASP1 activity in RPS19-edited model of DBA", "assay_type": "cell-based, human", "conditions": "0.1 μM nilotinib (FIG. 14D)", "experimental": "FIG. 14. Nilotinib promotes erythropoiesis in a human RPS19-edited model of DBA. RPS19 gene was edited in primary human CD34^+/CD133^+ cells with CRISPR-Cas9 technology and the cells were then differentiated with EPO for 13 days in the presence of absence of 0.1 μM nilotinib. (A) Representative flow cytometry dot plots of CD235-APC vs. CD71-FITC from control and RPS19-edited cells at 13 days of differentiation with EPO. (B) Cell surface expression of CD235A from control (mock) and RPS19-deficient cells treated with DMSO or nilotinib. (C) Percentage of mature erythrocytes (CD71^−/CD235A^+) vs. percentage of erythroid progenitors (CD71^+/CD235A^−) in RPS19-deficient cells treated with DMSO or 0.1 μM nilotinib. (D) CASP1 activity of control and RPS19-deficient cells treated with DMSO or 0.1 μM nilotinib. MFI, mean fluorescence intensity."}, "ZAKα": {"molecular_target": "ZAKα (Homo sapiens, UniProt Q9NYL2)", "sequence (Q9NYL2 whole entry)": "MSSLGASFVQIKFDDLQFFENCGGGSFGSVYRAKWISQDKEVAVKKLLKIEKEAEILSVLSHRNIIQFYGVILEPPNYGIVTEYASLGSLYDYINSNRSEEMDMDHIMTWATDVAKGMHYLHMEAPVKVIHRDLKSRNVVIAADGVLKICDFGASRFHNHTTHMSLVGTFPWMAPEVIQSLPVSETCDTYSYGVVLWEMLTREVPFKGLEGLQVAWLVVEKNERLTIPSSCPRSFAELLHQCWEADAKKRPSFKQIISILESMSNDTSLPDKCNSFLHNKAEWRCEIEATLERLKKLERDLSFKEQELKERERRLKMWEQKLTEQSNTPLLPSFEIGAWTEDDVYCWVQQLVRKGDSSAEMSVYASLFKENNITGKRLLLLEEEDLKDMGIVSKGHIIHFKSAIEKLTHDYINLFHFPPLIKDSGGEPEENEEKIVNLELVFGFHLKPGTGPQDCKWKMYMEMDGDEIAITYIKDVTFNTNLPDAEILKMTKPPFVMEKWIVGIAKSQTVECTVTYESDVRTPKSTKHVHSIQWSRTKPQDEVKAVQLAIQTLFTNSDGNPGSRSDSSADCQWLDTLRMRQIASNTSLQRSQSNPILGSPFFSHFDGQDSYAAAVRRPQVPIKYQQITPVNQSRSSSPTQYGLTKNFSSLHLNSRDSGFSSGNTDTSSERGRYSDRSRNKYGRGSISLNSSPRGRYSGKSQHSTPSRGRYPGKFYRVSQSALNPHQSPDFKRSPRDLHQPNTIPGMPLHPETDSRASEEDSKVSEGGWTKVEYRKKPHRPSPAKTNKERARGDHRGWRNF", "conditions": "cited from earlier work"}, "HSPCs from DBA patients": {"tested_on": "HSPCs from DBA patients", "experiment": "Colony assay of PBMCs from DBA patients in methylcellulose medium", "assay_type": "cell-based, human", "conditions": "2 weeks, indicated concentrations (FIG. 13A)", "experimental": "FIG. 13. […] PBMCs from DBA patients were incubated for 2 weeks in human methylcellulose complete medium at 37° C. in the presence or absence of the indicated concentrations of nilotinib, imatinib, dasatinib, bosutinib and ponatinib, and the number of erythroid (A) and myeloid (B) colonies counted using standard morphological criteria. Each dot represents one patient and the means±SEM for each group is also shown."}}}
{"smiles": "Cc1cn(-c2cc(NC(=O)c3ccc(C)c(Nc4nccc(-c5cccnc5)n4)c3)cc(C(F)(F)F)c2)cn1", "note": "[nilotinib]", "values": [{"measurement": "erythropoiesis of primary CD34+/CD133+ HSPCs", "setting": "[1]", "value": "accelerated erythropoiesis"}, {"measurement": "number of erythroid colonies", "setting": "[2]; nilotinib 0.01 and 0.1 μM (FIG. 6E)", "value": "strongly increased"}, {"measurement": "number of myeloid colonies", "setting": "[2]; nilotinib 0.01 and 0.1 μM (FIG. 6F)", "value": "not affected"}, {"measurement": "transcript levels of erythroid genes (RT-qPCR)", "setting": "K562 cells; K562 cells incubated with nilotinib", "value": "increased transcript levels"}, {"measurement": "expression of erythroid genes (transcriptomic analysis)", "setting": "K562 cells; K562 cells, 0.1 μM nilotinib 24 h, control cells and upon hemin 24 h, RNA seq", "value": "robustly induced"}, {"measurement": "exacerbated caspase-1 activity of RPS19-deficient cells", "setting": "caspase-1", "value": "reduced to control levels"}, {"measurement": "affinity for ZAKα", "setting": "ZAKα", "value": "high affinity"}, {"measurement": "defective erythropoiesis of HSPCs from DBA patients (erythroid colonies)", "setting": "HSPCs from DBA patients", "value": "alleviated defective erythropoiesis"}]}
